We go through five compounds from patent publication US12139520B2 (priority 2020, dated 2024).

The target in one series is hAM1 receptor (Homo sapiens, UniProt O60895+Q16602). The experiment in a line: cAMP assay for in vitro receptor activation, hAM1-R. It is filed as cell-based. The settings on record: cAMP assay, hAM1 receptor; read-out: hAM1R EC50. In a few lines:
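Receptor activation, read as cAMP, was assessed in thawed cells of a monoclonal hAM1-overexpressing stable line, plated at 8000 cells/well in DPBS supplemented with 0.05% casein and 0.5 mM IBMX.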

Series [1] can be described thus: Physical stability of peptide analogues (Thioflavin T fibrillation). Type of series: physicochemical. The settings on record: maximum ThT signal normalized between hAMY maximum and buffer background; 40° C., shaking, four days; pH 7 per table title. In a few lines: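 Peptides in 50 mM sodium acetate pH 4 or 50 mM sodium phosphate pH 7 were preincubated 1 h, mixed with 4 μM ThT, held at 40° C with 700 rpm shaking before each read. Fluorescence (ex 450/em 480 nm) every 10 min for four days; LOESS-smoothed maximum signal normalized in percent between hAMY and buffer.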

For a further series, the target named is T1, hAMY3 receptor (Homo sapiens, UniProt O60896+P30988).
T1 sequence (P30988 25-474): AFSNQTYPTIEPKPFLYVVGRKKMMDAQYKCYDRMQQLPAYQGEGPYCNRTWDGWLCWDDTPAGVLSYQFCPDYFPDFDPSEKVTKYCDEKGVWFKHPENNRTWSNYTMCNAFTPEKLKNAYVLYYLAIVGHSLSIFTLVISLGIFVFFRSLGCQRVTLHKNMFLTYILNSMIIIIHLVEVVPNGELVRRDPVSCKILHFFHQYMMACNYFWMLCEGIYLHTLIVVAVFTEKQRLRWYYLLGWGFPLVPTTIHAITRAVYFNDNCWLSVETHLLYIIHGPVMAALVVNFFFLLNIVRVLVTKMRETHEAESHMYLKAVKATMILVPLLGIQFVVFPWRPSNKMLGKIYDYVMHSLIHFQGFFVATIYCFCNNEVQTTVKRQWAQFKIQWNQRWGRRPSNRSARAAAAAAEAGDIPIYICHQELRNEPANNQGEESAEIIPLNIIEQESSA
T1 sequence (O60896 24-148 partner): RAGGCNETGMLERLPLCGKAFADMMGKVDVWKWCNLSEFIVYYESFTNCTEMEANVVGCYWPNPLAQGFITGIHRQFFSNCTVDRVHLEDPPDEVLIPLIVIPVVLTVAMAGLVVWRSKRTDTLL
Description: cAMP assay for in vitro receptor activation, hAMY3-R. It is filed as cell-based. The settings on record: cAMP assay, hAMY3 receptor; read-out: hAMY3R EC50. In outline:
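Monoclonal cell line stably overexpressing human AMY3 receptor, 2000 cells/well in DPBS with 0.05% casein and 0.5 mM IBMX. Stimulated 30 min at room temperature with graded compound doses, human amylin as positive control. cAMP accumulation read by TR-FRET after one hour.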
(Changes in cAMP serve as a functional read-out for many G protein-coupled receptors.)

Bridge positions count the residues as written; N and C are the ends. Square brackets hold non-standard residues; d marks the D form. Peptide text beside a SMILES is read from it. Hyp = O=C(O)[C@@H]1C[C@@H](O)CN1; Cit = NC(=O)NCCC[C@H](N)C(=O)O

Chain of hAM1 receptor (Q16602 23-461): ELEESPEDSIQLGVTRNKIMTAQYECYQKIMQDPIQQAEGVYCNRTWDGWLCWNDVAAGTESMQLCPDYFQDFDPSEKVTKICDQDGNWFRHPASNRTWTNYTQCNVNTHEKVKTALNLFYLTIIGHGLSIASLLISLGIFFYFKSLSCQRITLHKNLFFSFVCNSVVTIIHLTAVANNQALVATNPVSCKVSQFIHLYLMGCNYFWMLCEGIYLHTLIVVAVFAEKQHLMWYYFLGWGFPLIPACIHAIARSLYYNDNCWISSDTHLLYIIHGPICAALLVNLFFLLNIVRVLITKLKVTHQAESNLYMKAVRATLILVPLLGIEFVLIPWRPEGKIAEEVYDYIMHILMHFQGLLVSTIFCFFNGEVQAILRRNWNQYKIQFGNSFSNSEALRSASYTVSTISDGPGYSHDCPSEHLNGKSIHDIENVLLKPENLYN
Chain of hAM1 receptor (O60895 43-175 partner): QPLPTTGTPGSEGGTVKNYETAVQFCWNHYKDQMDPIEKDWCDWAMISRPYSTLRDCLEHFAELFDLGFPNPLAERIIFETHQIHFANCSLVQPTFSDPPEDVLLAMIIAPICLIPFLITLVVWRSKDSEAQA

Turning to `CC[C@H](C)[C@H](NC(=O)[C@H](CCC(N)=O)NC(=O)[C@H](CCC(=O)O)NC(=O)[C@H](C)NC(=O)[C@H](CC(C)C)NC(=O)[C@H](CCCNC(N)=O)NC(=O)[C@H](CCC(N)=O)NC(=O)[C@@H](NC(=O)[C@@H](NC(=O)[C@@H]1CSSC[C@H](NC(=O)[C@@H](N)CCCCN)C(=O)N[C@@H](CC(N)=O)C(=O)N[C@@H]([C@@H](C)O)C(=O)N[C@@H](C)C(=O)N[C@@H]([C@@H](C)O)C(=O)N1)[C@@H](C)O)C(C)C)C(=O)N[C@@H](Cc1ccc(O)cc1)C(=O)N[C@@H](CCC(N)=O)C(=O)N[C@@H](Cc1ccccc1)C(=O)N[C@H](C(=O)N[C@@H](CC(=O)O)C(=O)N[C@@H](CCCCN)C(=O)N[C@@H](CC(=O)O)C(=O)N[C@@H](CCCCN)C(=O)N[C@@H](CC(=O)O)C(=O)N[C@@H](CC(N)=O)C(=O)N[C@H](C(=O)N[C@@H](CO)C(=O)N1CCC[C@H]1C(=O)N1CCC[C@H]1C(=O)N[C@H](C(=O)N[C@@H](CC(N)=O)C(=O)N[C@H](C(=O)NCC(=O)N[C@@H](CO)C(=O)N[C@@H](CC(N)=O)C(=O)NCC(=O)N1C[C@H](O)C[C@H]1C(N)=O)C(C)C)[C@@H](C)O)C(C)C)[C@@H](C)O` [compound 266] (H-KCNTATCTVQ[Cit]LAEQIYQFTDKDKDNVSPPTNVGSNG[Hyp]-NH2; disulfide 2-7; N-terminus assumed), the values for the 50% effective concentration (EC50) at hAM1 receptor and at hAMY3 receptor were above 5000 nM and 0.053 nM, respectively. The “Max ThT signal (%)” value in series [1] stood at 20.900%.

For `CC[C@H](C)[C@H](NC(=O)[C@H](CCC(N)=O)NC(=O)[C@H](Cc1c[nH]cn1)NC(=O)[C@H](C)NC(=O)[C@H](CC(C)C)NC(=O)[C@H](CCCNC(N)=O)NC(=O)[C@H](CCC(N)=O)NC(=O)[C@@H](NC(=O)[C@@H](NC(=O)[C@@H]1CSSC[C@H](NC(=O)[C@@H](N)CCCCN)C(=O)N[C@@H](CC(N)=O)C(=O)N[C@@H]([C@@H](C)O)C(=O)N[C@@H](C)C(=O)N[C@@H]([C@@H](C)O)C(=O)N1)[C@@H](C)O)C(C)C)C(=O)N[C@@H](Cc1ccc(O)cc1)C(=O)N[C@@H](CCC(N)=O)C(=O)N[C@@H](Cc1ccccc1)C(=O)N[C@H](C(=O)N[C@@H](CC(=O)O)C(=O)N[C@@H](CCCCN)C(=O)N[C@@H](CC(=O)O)C(=O)N[C@@H](CCCCN)C(=O)N[C@@H](CC(=O)O)C(=O)N[C@@H](CC(N)=O)C(=O)N[C@H](C(=O)N[C@@H](C)C(=O)N1CCC[C@H]1C(=O)N1CCC[C@H]1C(=O)N[C@H](C(=O)N[C@@H](CC(N)=O)C(=O)N[C@H](C(=O)NCC(=O)N[C@@H](CO)C(=O)N[C@@H](CC(N)=O)C(=O)NCC(=O)N1C[C@H](O)C[C@H]1C(N)=O)C(C)C)[C@@H](C)O)C(C)C)[C@@H](C)O` [compound 268] (H-KCNTATCTVQ[Cit]LAHQIYQFTDKDKDNVAPPTNVGSNG[Hyp]-NH2; disulfide 2-7; N-terminus assumed), the concentration giving a half-maximal response (EC50) (usually the concentration giving half of the maximal effect) was above 5000 nM on hAM1 receptor and 0.014 nM on hAMY3 receptor. Moreover, the “Max ThT signal (%)” value in series [1] was 8.850%.

For `CC[C@H](C)[C@H](NC(=O)[C@H](CCC(N)=O)NC(=O)[C@H](Cc1c[nH]cn1)NC(=O)[C@H](C)NC(=O)[C@H](CC(C)C)NC(=O)[C@H](CCCNC(N)=O)NC(=O)[C@H](CCC(N)=O)NC(=O)[C@@H](NC(=O)[C@@H](NC(=O)[C@@H]1CSSC[C@H](NC(=O)CN)C(=O)N[C@@H](CCCNC(=N)N)C(=O)N[C@@H]([C@@H](C)O)C(=O)NCC(=O)N[C@@H]([C@@H](C)O)C(=O)N1)[C@@H](C)O)C(C)C)C(=O)N[C@@H](Cc1ccc(O)cc1)C(=O)N[C@@H](CCC(N)=O)C(=O)N[C@@H](Cc1ccccc1)C(=O)N[C@H](C(=O)N[C@@H](CC(=O)O)C(=O)N[C@@H](CCCCN)C(=O)N[C@@H](CC(=O)O)C(=O)N[C@@H](CCCCN)C(=O)N[C@@H](CC(=O)O)C(=O)N[C@@H](CC(N)=O)C(=O)N[C@H](C(=O)N[C@@H](C)C(=O)N1CCC[C@H]1C(=O)N[C@@H](CCCNC(=N)N)C(=O)N[C@H](C(=O)N[C@@H](CC(N)=O)C(=O)N[C@H](C(=O)NCC(=O)N1CCC[C@H]1C(=O)N[C@@H](CC(N)=O)C(=O)NCC(=O)N[C@@H](Cc1ccc(O)cc1)C(N)=O)C(C)C)[C@@H](C)O)C(C)C)[C@@H](C)O` [compound 269] (H-GCRTGTCTVQ[Cit]LAHQIYQFTDKDKDNVAPRTNVGPNGY-NH2; disulfide 2-7; N-terminus assumed), the EC50 was above 5000 nM on hAM1 receptor and 0.005 nM at hAMY3 receptor. For the same compound, the “Max ThT signal (%)” value in series [1] was 34.500%.

Regarding `CC[C@H](C)[C@H](NC(=O)[C@H](CCC(N)=O)NC(=O)[C@H](Cc1c[nH]cn1)NC(=O)[C@H](C)NC(=O)[C@H](CC(C)C)NC(=O)[C@H](CCCNC(N)=O)NC(=O)[C@H](CCC(N)=O)NC(=O)[C@@H](NC(=O)[C@@H](NC(=O)[C@@H]1CSSC[C@H](NC(=O)[C@@H](N)CCCCN)C(=O)N[C@@H](CC(N)=O)C(=O)N[C@@H]([C@@H](C)O)C(=O)N[C@@H](C)C(=O)N[C@@H]([C@@H](C)O)C(=O)N1)[C@@H](C)O)C(C)C)C(=O)N[C@@H](Cc1ccc(O)cc1)C(=O)N[C@@H](CCC(N)=O)C(=O)N[C@@H](Cc1ccccc1)C(=O)N[C@H](C(=O)N[C@@H](CC(=O)O)C(=O)N[C@@H](CCCCN)C(=O)N[C@@H](CC(=O)O)C(=O)N[C@@H](CCCCN)C(=O)N[C@@H](CC(=O)O)C(=O)N[C@@H](CC(N)=O)C(=O)N[C@H](C(=O)N[C@@H](C)C(=O)N1CCC[C@H]1C(=O)N[C@@H](CCCNC(=N)N)C(=O)N[C@H](C(=O)N[C@@H](CCC(=O)O)C(=O)N[C@H](C(=O)NCC(=O)N[C@@H](CO)C(=O)N[C@@H](CC(N)=O)C(=O)NCC(=O)N[C@@H](Cc1ccc(O)cc1)C(N)=O)C(C)C)[C@@H](C)O)C(C)C)[C@@H](C)O` [compound 272] (H-KCNTATCTVQ[Cit]LAHQIYQFTDKDKDNVAPRTEVGSNGY-NH2; disulfide 2-7; N-terminus assumed), the EC50 was above 5000 nM on hAM1 receptor and 0.009 nM on hAMY3 receptor. The “Max ThT signal (%)” value in series [1] is given as 16.750%.

Regarding `CC[C@H](C)[C@H](NC(=O)[C@H](CCC(N)=O)NC(=O)[C@H](Cc1c[nH]cn1)NC(=O)[C@H](C)NC(=O)[C@H](CC(C)C)NC(=O)[C@H](CCCNC(N)=O)NC(=O)[C@H](CCC(N)=O)NC(=O)[C@@H](NC(=O)[C@@H](NC(=O)[C@@H]1CSSC[C@H](NC(=O)CN)C(=O)N[C@@H](CCCNC(=N)N)C(=O)N[C@@H]([C@@H](C)O)C(=O)NCC(=O)N[C@@H]([C@@H](C)O)C(=O)N1)[C@@H](C)O)C(C)C)C(=O)N[C@@H](Cc1ccc(O)cc1)C(=O)N[C@@H](CCC(N)=O)C(=O)N[C@@H](Cc1ccccc1)C(=O)N[C@H](C(=O)N[C@@H](CC(=O)O)C(=O)N[C@@H](CCCCN)C(=O)N[C@@H](CC(=O)O)C(=O)N[C@@H](CCCCN)C(=O)N[C@@H](CC(=O)O)C(=O)N[C@@H](CC(N)=O)C(=O)N[C@H](C(=O)N[C@@H](C)C(=O)N1CCC[C@H]1C(=O)N[C@@H](CCCNC(=N)N)C(=O)N[C@H](C(=O)N[C@@H](CC(N)=O)C(=O)N[C@H](C(=O)NCC(=O)N1CCC[C@H]1C(=O)N[C@@H](CCC(N)=O)C(=O)NCC(=O)N[C@@H](Cc1ccc(O)cc1)C(N)=O)C(C)C)[C@@H](C)O)C(C)C)[C@@H](C)O` [compound 273] (H-GCRTGTCTVQ[Cit]LAHQIYQFTDKDKDNVAPRTNVGPQGY-NH2; disulfide 2-7; N-terminus assumed), the EC50 at hAM1 receptor is above 5000 nM; on hAMY3 receptor, 0.021 nM. In addition, the “Max ThT signal (%)” value in series [1] was found to be 29.000%.
